Laboratory results reported in patent US9351959B2, “Alpha adreneric receptor agonists for treatment of degenerative disc disease” (WARSAW ORTHOPEDIC INC., priority 2008, dated 2016).

System: Rat Chronic Constriction Injury Model
Conditions: 0.02 mg/kg/day subcutaneously; compared to unloaded polymer depots; FIG. 4
Source text: The inventors evaluated the efficacy of a five Month Clonidine/Polymer Drug Depot in the Rat Chronic Constriction Injury Model. The animal model was the Bennett Model (Wistar rat). The purpose: To determine whether a five month polymer clonidine-eluting depot can improve pain associated behavioral responses in a rat model of neuropathic pain.
Experimental Design: Four loose chromic gut ligatures, 1 mm apart, were tied around the common sciatic nerve at mid-thigh. Each animal received treatment of test or control article—according to the dosing described in Table 5.
The inventors have conducted the present study for a period of 64 days and have employed the following two tests: (1) the Hargreaves test; and (2) the von Frey test. The Hargreaves Tests of Thermal Hyperalgesia were conducted on days 7, 14, 21, 28, 35, 42, 49, 56 and 63. The von Frey monofilament test of mechanical allodynia (performed the day following Thermal testing) were conducted on days-8, 15, 22, 29, 36, 43, 50, 57 and 64.

## Clc1cccc(Cl)c1N=C1NCCN1 [clonidine, 2,6-dichloro-N-2-imidazolidinyldenebenzenamine]
  pain behavioral response (measured as a percentage of baseline) for mechanical allodynia: reduced the behavioral response
